Source: patent US6159953A, “Anti-malarial composition and method of use” (Catholic University of America, priority 1992, dated 2000)
Read-outs that look alike come from different tables or passages of the source.

Legend:
[1] = tested on: Plasmodium falciparum, Indochina clone W2; assay: microbe, parasite or virus in culture; conditions: for IC50: Plasmodium falciparum
Description: In the antimalarial experiment with parasites, incorporation of radioactivity from [G-^3 H]-hypoxanthine into nucleic acids served as a measure of parasite proliferation. […] Each data point represents an average of two determinations. In the study of toxicity to human cells, proliferation of cells was determined directly by measuring the number of viable cells per well. […] Each data point represents an average of two determinations. 5-fluoro-orotate (.circle-solid.), 5-fluorouracil (.box-solid.), 5-fluorouridine (.tangle-solidup.), and 5-fluoro-2'-deoxyuridine (.diamond-solid.).
(§1) Half shaded symbols represent overlapping data points.
3. Effects of pyrimidine analogues alone or in combination with normal pyrimidine bases or nucleosides or with amino acid derivatives can be tested in malaria parasite-infected erythrocytes. Varying concentrations of pyrimidine analogues in culture medium are added to individual wells of microtitre plates [Desjardins, R. E. et al., Antimicrob. […] Parasitemic erythrocytes in culture medium are added to each well. […] As an alternative to adding a radioactive precursor of nucleic acid biosynthesis, the end point for determining the effects of added drugs can be the incorporation of a radioactive amino acid, e.g., [U-^14 C]-isoleucine, into parasite protein.
Fluoropyrimidines, dispersed in 25 μl of culture medium, were added to individual wells of a 96-well microtitre plate. […] Finally, the incorporation of 0.5 μCi of [G-^3 H]hypoxanthine (1 Ci/mmol) into nucleic acids in each well was determined; this served as a measure of parasite proliferation.

[2] = tested on: Plasmodium falciparum, Sierra Leone clone; assay: [U-14C]-isoleucine incorporation into parasite protein, Sierra Leone clone; assay type: cell-based, P. falciparum; conditions: Table 2, isoleucine uptake
Description: 3. […] Agents Chemotherap., 16:710-18 (1979)].
The chloroquine-sensitive Sierra Leone clone of P. falciparum was cultured in erythrocytes as in Example 1 above. In one method of determining the toxicity of 5-fluoro-orotate, [G-^3 H]-hypoxanthine uptake was used as an indicator of parasite proliferation, according to the procedure of Example 1 above. In a second method, the increase in parasitemia was determined directly by smearing infected erythrocytes on microscope slides, staining with Giemsa stain, and determining the ratio of infected to non-infected erythrocytes. In a third method, parasite-infected erythrocytes were incubated with [U-^14 C]-isoleucine (0.5 μCi; 0.33 Ci/mmol), and the amount of radioactivity incorporated into precipitable proteins determined.

[3] = tested on: HT-1080 human fibrosarcoma cells; assay: Toxicity to cultured HT-1080 cells, number of viable cells; assay type: cell-based; conditions: for IC50: Homo sapiens
Description: Each data point represents an average of two determinations. […] Each data point represents an average of two determinations.
as §1
Toxicity of pyrimidine analogues to cultured human cells is determined as follows. Mammalian cells are seeded into culture plate wells, and growth medium is added. The following day, fresh culture medium containing the appropriate pyrimidine analogues is added to the wells, and the plates incubated for a period of time and at a temperature appropriate to the cell line and the experimental requirements. Thereafter, the number of cells in each well is determined. […] Cells that grow in suspension (e.g., HL-60 and L-1210 cells) are transferred to centrifuge tubes, pelleted at low speed, washed, and the viability determined as above.
HT-1080 cells were seeded into 6-well culture plates at a density of 50,000 cells per 9.6 cm^2 well. Each well contained 2.5 ml of growth medium. […] After 1 minute, the detached cells were suspended in 1.0 ml of EMEM and collected by centrifugation at 300×g for 3 minutes. […] The concentrations of viable cells were determined in a hemocytometer.

[4] = Pharmacokinetics of 5-fluoro-orotate in mice; assay type: in vivo, Swiss white mice
Description: FIG. 3 illustrates time-dependant changes in plasma 5-fluoroorotate concentration following single intraperitoneal injections of 5-fluoro-orotate at 0.2 mg/kg (.box-solid.), 1 mg/kg (.diamond-solid.), or 5 mg/kg (.tangle-solidup.). Two mice were used at each dosage level. At each time point, duplicate 200 μl samples of blood were drawn and analyzed for 5-fluoro-orotate concentration.
Several types of in vivo experiments in intact vertebrates can be used to test the effectiveness in vivo of the anti-malarial compositions of this invention. In one in vivo test system, dosage regimens for pyrimidine analogues are estimated by determining the pharmacokinetics of the drugs. Normal and malaria parasite-infected animals (preferably mice, but other rodents can be used) are injected once (preferably intraperitoneally, but subcutaneous or intravenous administration is also suitable) with the drug at various doses, e.g, from 0 to about 10 mg/kg body weight, preferably from about 0.2 to about 5 mg/kg body weight. At various time points (preferably from about 3 to about 180 minutes), blood samples are drawn from the animals and the amount of the drug in the plasma fraction determined as described in Example 7 below. The concentration of drug is plotted as a function of time for each drug dosage.
Pairs of Swiss white mice (Charles River Labs, Mass.) were injected intraperitoneally with 200 μl of [2-^14 C]-5-fluoro-orotate in saline (55 μCi/μmol). Single injections of the drug were made at dosages of 0.2, 1 and 5 mg/kg body weight. At time points ranging from about 3 to about 180 minutes, two 200 μl blood samples were drawn from the tail veins of the mice, and the amount of 5-fluoro-orotate present in the plasma determined, as described below.
Blood samples were immediately diluted in 100 μl of cold saline, and centrifuged in a desk top Eppendorf centrifuge for 1 minute to separate the plasma fraction from blood cells. Cell pellets were washed with 100 μl of saline, centrifuged, and the supernatant fractions mixed with plasma fractions. In order to determine the 5-fluoro-orotate concentrations of the diluted plasma fractions, the radioactive content of half the samples was determined by liquid scintillation spectrometry. The remaining samples were chromatographed on a Pharmacia FPLC system using a Mono Q anion-exchange column.

SMILES: O=C(O)c1[nH]c(=O)[nH]c(=O)c1F [5-fluoro-orotate]
- effect of uridine on cytotoxicity towards malarial parasites ([1]; Indochina clone W-2, 48 h, 1 mM uridine (FIG. 2)): no effect
- IC50 ([1]; W2): 0.006 ± 0.0017 µM
- IC50 ([1]; W2, 48 h): 0.006 µM
- times more active than chloroquine ([1]; multidrug-resistant Indochina clone): 21 times
- IC50 [2]: 0.0047 µM
- decrease of cytotoxicity by 1 mM uridine ([3]; HT-1080, 48 h, simultaneous 1 mM uridine (FIG. 2)): 5 -fold
- IC50 ([3]; HT-1080, 48 h, read-out: IC50 (50% inhibition)): ~10 µM
- IC50 ([3]; HT-1080, read-out: IC50 With 1 mM Uridine): 50 µM
- IC50 ([3]; HT-1080, read-out: IC50 Without Uridine): 10 µM
- identity of plasma radioactivity ([4]; 90 minutes after injection, Mono Q chromatography): radioactivity in the plasma fraction was due to 5-fluoro-orotate and not some secondary metabolite of the experimental drug
- plasma pharmacokinetic profile in infected mice ([4]; P. yoelii infected (10% parasitemia), 1 mg/kg, vs uninfected mice): essentially the same as that of uninfected mice
- circulating radioactivity associated with blood cells ([4]; [2-14C]-5-fluoro-orotate i.p.): below 10%
- half-life ([4]; mouse, ip, single i.p. dose, plasma, mice, read-out: t1/2 (loss from the circulation)): ~1.5 h
- concentration at 1 h ([4]; mouse, plasma, ip, 0.2 mg/kg i.p., within 60 minutes, read-out: drug concentration within 60 minutes): < 0.5 µM
- Cmax ([4]; mouse, plasma, ip, 0.2 mg/kg i.p., read-out: maximum drug concentration): ≤ 2 µM
- Cmax ([4]; mouse, plasma, ip, single i.p. 5 mg/kg, read-out: peak plasma concentration): ~30 µM
- Tmax ([4]; mouse, plasma, ip, single i.p. 0.2, 1, 5 mg/kg, all dosages, read-out: time of peak plasma concentration): ≤ 0.333 h
- concentration ([4]; single i.p. 5 mg/kg, read-out: plasma concentration after rapid drop): < 10 µM
